The target in one assay is T1, Peroxisome proliferator-activated receptor gamma (Homo sapiens, UniProt P37231).
T1 sequence (P37231 whole entry): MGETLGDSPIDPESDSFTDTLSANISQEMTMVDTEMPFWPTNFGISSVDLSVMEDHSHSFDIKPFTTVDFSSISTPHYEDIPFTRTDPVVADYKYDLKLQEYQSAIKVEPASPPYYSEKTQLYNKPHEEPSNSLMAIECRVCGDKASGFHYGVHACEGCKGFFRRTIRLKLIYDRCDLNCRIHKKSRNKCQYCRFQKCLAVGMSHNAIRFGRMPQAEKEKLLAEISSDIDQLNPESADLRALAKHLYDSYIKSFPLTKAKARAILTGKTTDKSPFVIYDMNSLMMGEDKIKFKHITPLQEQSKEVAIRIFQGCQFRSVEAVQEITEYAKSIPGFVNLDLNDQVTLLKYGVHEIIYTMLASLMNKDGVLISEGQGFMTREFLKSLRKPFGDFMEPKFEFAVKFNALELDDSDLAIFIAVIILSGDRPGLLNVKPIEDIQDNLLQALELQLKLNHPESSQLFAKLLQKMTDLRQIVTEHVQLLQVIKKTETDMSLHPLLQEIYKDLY
The assay is described as follows: Transactivation activity at Homo sapiens (human) PPARgamma.
The term EC50 denotes the concentration that produces a half-maximal response. Read a high EC50 as a need for much substance. The molecule `CCCc1cc(Oc2ccccc2)ccc1OCCCCOc1ccc(C2SC(=O)NC2=O)cc1` (stereo not given) came in with an EC50 of 1 µM.

As to `O=C1NC(=O)C(Cc2ccc3c(c2)CC[C@H](Cc2ccccc2)O3)S1` (stereo not given in full) [ENGLITAZONE], a half-maximal response (EC50) required 1 µM.

The next assay addresses T1, Peroxisome proliferator-activated receptor gamma. Kind of assay: Transactivation activity at PPARgamma (unknown origin).
For `COC(=O)CN1C(=O)S/C(=C\c2ccc(O)cc2)C1=O`, the EC50 was found to be 10 µM.

Molecule `CCOC(=O)CN1C(=O)S/C(=C\c2ccc(Cl)cc2)C1=O` had an EC50 of 8 µM.

Take `CCOC(=O)CN1C(=O)SC(Cc2ccc(F)cc2)C1=O` (stereo not given): a half-maximal effect (EC50) was put at 10 µM.

`COC(=O)CN1C(=O)SC(Cc2ccc(O)cc2)C1=O` (stereo not given): a half-maximal effect (EC50) was put at 9 µM.

`CCOC(=O)CN1C(=O)S/C(=C\c2ccc(OC)cc2)C1=O` displayed an EC50 of 7 µM.

As for `C/C(=N\OCCOc1ccc(CC2SC(=O)NC2=O)cc1)c1ccc(-c2ccccc2)cc1` (stereo not given), the EC50 was above 0.4 µM.

The molecule `CCOC(=O)CN1C(=O)S/C(=C\c2ccc(OCCBr)cc2)C1=O` displayed an EC50 of 11 µM.

In turn, `CCOC(=O)CN1C(=O)S/C(=C\c2ccc(C)cc2)C1=O` gave an EC50 of 9 µM.

In turn, `CCOC(=O)CN1C(=O)S/C(=C\c2cccc([N+](=O)[O-])c2)C1=O` had an EC50 of 11 µM.

Consider `CCOC(=O)CN1C(=O)SC(Cc2ccc(OCCBr)cc2)C1=O` (stereo not given), for which the half-maximal effective concentration (EC50) was determined as 12 µM.

Take `CCOC(=O)CN1C(=O)SC(Cc2ccc(C(F)(F)F)cc2)C1=O` (stereo not given): the EC50 worked out at 9 µM.

`CCOC(=O)CN1C(=O)SC(Cc2ccc(N)cc2)C1=O` (stereo not given) came in with an EC50 of 8 µM.

In turn, `CCOC(=O)CN1C(=O)S/C(=C\c2ccc(C(F)(F)F)cc2)C1=O` had an EC50 of 10 µM.

(Values after ChEMBL document CHEMBL3046024, “Ligand-based in silico 3D-QSAR study of PPAR- agonists” (Med Chem Res, 2011).)
